US8796289B2 (AbbVie Inc., priority 2011, dated 2014)

molecular target: GST-tagged-Wee1 kinase (Homo sapiens, UniProt P30291); assay: Wee1 time-resolved fluorescence equilibrium binding assay (displacement of Oregon Green-labeled ATP-competitive kinase probe); conditions: not given
Method: Wee1 kinase was assayed using a time-resolved fluorescence equilibrium binding assay monitoring displacement of a rapidly reversible Oregon Green-labeled ATP-competitive kinase probe (N-(2-(2-(2-(4-(4-(5-chloro-4-(2-(1-hydroxycyclobutyl)thiazol-5-yl)-1H-pyrrolo[2,3-b]pyridin-2-yl)phenyl)piperazin-1-yl)ethoxy)ethoxy)ethyl)-2′,7′-difluoro-3′,6′-dihydroxy-3-oxo-3H-spiro[isobenzofuran-1,9′-xanthene]-5-carboxamide) by competitive Wee1 inhibitors.

Chain of GST-tagged-Wee1 kinase (P30291 whole entry): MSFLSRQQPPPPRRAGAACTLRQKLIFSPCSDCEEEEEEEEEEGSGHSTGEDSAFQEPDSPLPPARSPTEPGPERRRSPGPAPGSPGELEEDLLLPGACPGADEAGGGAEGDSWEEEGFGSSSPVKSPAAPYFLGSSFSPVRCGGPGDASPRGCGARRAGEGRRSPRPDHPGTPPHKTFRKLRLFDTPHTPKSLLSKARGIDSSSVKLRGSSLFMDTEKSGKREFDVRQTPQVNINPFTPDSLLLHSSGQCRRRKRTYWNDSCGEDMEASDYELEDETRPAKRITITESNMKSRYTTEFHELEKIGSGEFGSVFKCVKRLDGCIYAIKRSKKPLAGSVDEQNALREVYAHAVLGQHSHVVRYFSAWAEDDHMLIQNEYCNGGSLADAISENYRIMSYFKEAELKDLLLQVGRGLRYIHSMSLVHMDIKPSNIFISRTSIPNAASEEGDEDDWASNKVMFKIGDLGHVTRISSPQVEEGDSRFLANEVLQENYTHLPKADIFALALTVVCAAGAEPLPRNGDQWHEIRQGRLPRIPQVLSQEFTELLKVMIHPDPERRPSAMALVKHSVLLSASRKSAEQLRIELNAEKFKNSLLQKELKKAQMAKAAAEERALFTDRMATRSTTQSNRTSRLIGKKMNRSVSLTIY

Q: Which Ki does the source give for `Cc1nn(-c2c(Cl)cccc2Cl)c(=O)c2cnc(Nc3ccc(N4CCC(N(C)C)CC4)cc3)nc12` [Example 425, 6-(2,6-dichlorophenyl)-2-({4-[4-(dimethylamino)piperidin-1-yl]phenyl}amino)-8-methylpyrimido[4,5-d]pyridazin-5(6H)-one] here?
A: Its Ki is 190 pM.

Q: For `O=c1c2cnc(Nc3ccc(N4CCNCC4)cc3)nc2c(C2CC2)nn1-c1c(Cl)cccc1Cl` [Example 392, 8-cyclopropyl-6-(2,6-dichlorophenyl)-2-{[4-(piperazin-1-yl)phenyl]amino}pyrimido[4,5-d]pyridazin-5(6H)-one], which Ki is on record?
A: Its Ki is 270 pM.

Q: With `Cc1cc(Nc2ncc3c(=O)n(-c4ccccc4C)nc(-c4cccs4)c3n2)ccc1N1CCCN(C(C)C)CC1` [Example 120, 2-{[4-(4-isopropyl-1,4-diazepan-1-yl)-3-methylphenyl]amino}-6-(2-methylphenyl)-8-(2-thienyl)pyrimido[4,5-d]pyridazin-5(6H)-one] as the compound, how does the Ki read?
A: The Ki was 1000 pM.

Q: With `CN1CCN(c2ccc(Nc3ncc4c(=O)n(CCC#N)nc(CCc5ccccc5)c4n3)cc2)CC1` [Example 8, 3-[2-{[4-(4-methylpiperazin-1-yl)phenyl]amino}-5-oxo-8-(2-phenylethyl)pyrimido[4,5-d]pyridazin-6(5H)-yl]propanenitrile] as the compound, how does the Ki read?
A: The Ki was 370000 pM.

Q: `O=c1c2cnc(Nc3ccc(C4CCNC4)cc3)nc2c(C(F)(F)F)nn1-c1c(Cl)cccc1Cl` (stereo not shown) [Example 422, 6-(2,6-dichlorophenyl)-2-{[4-(pyrrolidin-3-yl)phenyl]amino}-8-(trifluoromethyl)pyrimido[4,5-d]pyridazin-5(6H)-one] was tested. Which Ki did it give?
A: Its Ki is 400 pM.

Q: Which Ki does the source give for `CN1Cc2cc(Nc3ncc4c(=O)n(-c5ccccc5Cl)nc(-c5ccccc5)c4n3)ccc2C2(CC2)C1` [Example 53, 6-(2-chlorophenyl)-2-[(2′-methyl-2′,3′-dihydro-1′H-spiro[cyclopropane-1,4′-isoquinolin]-7′-yl)amino]-8-phenylpyrimido[4,5-d]pyridazin-5(6H)-one] here?
A: The Ki was 100 pM.

Q: For `CN1CCN(c2ccc(Nc3ncc4c(=O)n(-c5ccccc5Cl)nc(-c5ccncn5)c4n3)cc2)CC1` [Example 178, 6-(2-chlorophenyl)-2-{[4-(4-methylpiperazin-1-yl)phenyl]amino}-8-(pyrimidin-4-yl)pyrimido[4,5-d]pyridazin-5(6H)-one], which Ki is on record?
A: The Ki was 2000 pM.

Q: Which Ki does the source give for `CN1Cc2cc(Nc3ncc4c(=O)n(-c5c(Cl)cccc5Cl)nc(-c5ccncc5)c4n3)ccc2C(C)(C)C1` [Example 256, 6-(2,6-dichlorophenyl)-8-(pyridin-4-yl)-2-[(2,4,4-trimethyl-1,2,3,4-tetrahydroisoquinolin-7-yl)amino]pyrimido[4,5-d]pyridazin-5(6H)-one] here?
A: The Ki was 300 pM.

Q: With `CN1CCN(c2ccc(Nc3ncc4c(=O)n(-c5ccccc5Cl)nc(-c5ccncc5)c4n3)cc2)CC1` [Example 155, 6-(2-chlorophenyl)-2-{[4-(4-methylpiperazin-1-yl)phenyl]amino}-8-(pyridin-4-yl)pyrimido[4,5-d]pyridazin-5(6H)-one] as the compound, how does the Ki read?
A: The Ki was 400 pM.

Q: With `COc1ccccc1-n1nc(-c2ccc(Cl)cc2Cl)c2nc(Nc3ccc(N4CCN(C)CC4)cc3)ncc2c1=O` [Example 43, 8-(2,4-dichlorophenyl)-6-(2-methoxyphenyl)-2-{[4-(4-methylpiperazin-1-yl)phenyl]amino}pyrimido[4,5-d]pyridazin-5(6H)-one] as the compound, how does the Ki read?
A: The Ki was 260000 pM.

Q: `CC(=O)N1Cc2cc(Nc3ncc4c(=O)n(-c5c(Cl)cccc5Cl)nc(-c5ccncc5)c4n3)ccc2C2(CC2)C1` [Example 379, 2-[(2′-acetyl-2′,3′-dihydro-1′H-spiro[cyclopropane-1,4′-isoquinolin]-7′-yl)amino]-6-(2,6-dichlorophenyl)-8-(pyridin-4-yl)pyrimido[4,5-d]pyridazin-5(6H)-one] was tested. Which Ki did it give?
A: Its Ki is 450 pM.

Q: How did the Ki turn out when `CN1CCN(c2ccc(Nc3ncc4c(=O)n(-c5c(Cl)cccc5Cl)nc(-c5cccnc5Cl)c4n3)cc2)CC1` [Example 81, 8-(2-chloropyridin-3-yl)-6-(2,6-dichlorophenyl)-2-{[4-(4-methylpiperazin-1-yl)phenyl]amino}pyrimido[4,5-d]pyridazin-5(6H)-one] was run?
A: The Ki was 4000 pM.

Q: With `CC(=O)N1Cc2cc(Nc3ncc4c(=O)n(-c5c(Cl)cccc5Cl)nc(C(F)F)c4n3)ccc2C2(CC2)C1` [Example 415, 2-[(2′-acetyl-2′,3′-dihydro-1′H-spiro[cyclopropane-1,4′-isoquinolin]-7′-yl)amino]-6-(2,6-dichlorophenyl)-8-(difluoromethyl)pyrimido[4,5-d]pyridazin-5(6H)-one] as the compound, how does the Ki read?
A: Its Ki is 1000 pM.

Q: How did the Ki turn out when `CN1CCN(c2ccc(Nc3ncc4c(=O)n(-c5c(Cl)cccc5Cl)nc(-c5cccc(CN6CCCCC6)c5)c4n3)cc2)CC1` [Example 157, 6-(2,6-dichlorophenyl)-2-{[4-(4-methylpiperazin-1-yl)phenyl]amino}-8-[3-(piperidin-1-ylmethyl)phenyl]pyrimido[4,5-d]pyridazin-5(6H)-one] was run?
A: The Ki was 50 pM.

Q: Which Ki does the source give for `C=CCn1nc(-c2cccs2)c2nc(Nc3ccc4c(c3)CN(C)CC43CC3)ncc2c1=O` [Example 117, 6-allyl-2-[(2′-methyl-2′,3′-dihydro-1′H-spiro[cyclopropane-1,4′-isoquinolin]-7′-yl)amino]-8-(2-thienyl)pyrimido[4,5-d]pyridazin-5(6H)-one] here?
A: Its Ki is 3000 pM.

Q: How did the Ki turn out when `Cc1nn(-c2c(Cl)cccc2Cl)c(=O)c2cnc(Nc3cccc(OC4CCN(C)CC4)c3)nc12` [Example 516, 6-(2,6-dichlorophenyl)-8-methyl-2-({3-[(1-methylpiperidin-4-yl)oxy]phenyl}amino)pyrimido[4,5-d]pyridazin-5(6H)-one] was run?
A: The Ki was 360 pM.

Q: Which Ki does the source give for `CN1CCN(c2ccc(Nc3ncc4c(=O)n(-c5c(Cl)cccc5Cl)nc(-c5cn(C)cn5)c4n3)cc2)CC1` [Example 338, 6-(2,6-dichlorophenyl)-8-(1-methyl-1H-imidazol-4-yl)-2-{[4-(4-methylpiperazin-1-yl)phenyl]amino}pyrimido[4,5-d]pyridazin-5(6H)-one] here?
A: The Ki was 720 pM.

Q: `Cc1nn(-c2c(Cl)cccc2Cl)c(=O)c2cnc(Nc3ccc(C4CCCNC4)cc3)nc12` (stereo not shown) [Example 459, 6-(2,6-dichlorophenyl)-8-methyl-2-{[4-(piperidin-3-yl)phenyl]amino}pyrimido[4,5-d]pyridazin-5(6H)-one] was tested. Which Ki did it give?
A: Its Ki is 170 pM.

Q: For `COC(=O)c1ccc(-c2nn(-c3c(Cl)cccc3Cl)c(=O)c3cnc(Nc4ccc(N5CCN(C)CC5)cc4)nc23)cc1` [Example 277, methyl 4-[6-(2,6-dichlorophenyl)-2-{[4-(4-methylpiperazin-1-yl)phenyl]amino}-5-oxo-5,6-dihydropyrimido[4,5-d]pyridazin-8-yl]benzoate], which Ki is on record?
A: Its Ki is 1200 pM.

Q: `Cc1ccccc1-n1nc(-c2ccccc2F)c2nc(Nc3ccc(N4CCN(C)CC4)cc3)ncc2c1=O` [Example 36, 8-(2-fluorophenyl)-6-(2-methylphenyl)-2-{[4-(4-methylpiperazin-1-yl)phenyl]amino}pyrimido[4,5-d]pyridazin-5(6H)-one] was tested. Which Ki did it give?
A: The Ki was 3000 pM.

Q: How did the Ki turn out when `Cc1nn(-c2ncccc2Cl)c(=O)c2cnc(Nc3ccc4c(c3)CNCC43CC3)nc12` [Example 349, 6-(3-chloropyridin-2-yl)-2-(2′,3′-dihydro-1′H-spiro[cyclopropane-1,4′-isoquinolin]-7′-ylamino)-8-methylpyrimido[4,5-d]pyridazin-5(6H)-one] was run?
A: Its Ki is 500 pM.

same assay, conditions: read-out: Wee-1 inhibition Ki

Q: How did the Ki turn out when “6-(2-chlorophenyl)-2-{[4-(4-methylpiperazin-1-yl)phenyl]amino}-8-(1-methyl-1H-pyrazol-4-yl)pyrimido[4,5-d]pyridazin-5(6H)-one [Example 86]” was run?
A: Its Ki is 1000 pM.
